Assay results from US20110065734A1, “NOVEL BIFUNCTIONAL COMPOUNDS WHICH INHIBIT PROTEIN KINASES AND HISTONE DEACETYLASES” (4SC AG, priority 2007, published 2011).
Where a name gives a salt, the structure may show the parent alone. Read-outs that look alike come from different tables or passages of the source.

Tests used:
[1] = test system: SKOV3 ovarian carcinoma cell line; test: Cellular cytotoxicity assay (Alamar Blue), SKOV3; type: cell-based; settings: Homo sapiens
Protocol: (§1) The anti-proliferative activity of the chimeric HDAC and protein kinase inhibitory chimeric compounds of the present invention was evaluated using HeLa cervical carcinoma, A549 NSCLC, SKOV3 ovarian carcinoma, Cal27 head and neck cancer, K562 chronic myeloid leukemia (CML) and EOL1 acute hypereosinophilic myeloid leukemia, cell lines. For quantification of cellular proliferation/living cells the Alamar Blue (Resazurin) cell viability assay was applied (O'Brien et al. Eur Biochem. 267, 5421-5426, 2000). In this assay Resazurin is reduced to the fluorescent resorufin by cellular dehydrogenase activity, correlating with viable, proliferating cells. The examples were dissolved as 20 mM solutions in dimethylsulfoxide (DMSO) and subsequently diluted in semi-logarithmic steps. Cell lines were seeded at respective density into 96 well flat bottom plates in a volume of 200 μl per well. 24 h after seeding 1 μl each of the compound dilutions were added into each well of the 96 well plate. Each compound dilution was tested as quadruplicates. Wells containing untreated control cells were filled with […] DMEM medium containing 0.5% v:v DMSO. The cells were then incubated with the substances for 72 h at 37° C. in a humidified atmosphere containing 5% carbon dioxide. To determine the viability of the cells, 20 μl of an Resazurin solution (Sigma; 90 mg/l) were added. After 4 h incubation at 37° C. the fluorescence was measured at an extinction of 544 nm and an emission of 590 nm. For the calculation of the cell viability the emission value from untreated cells was set as 100% viability and the emission rates of treated cells were set in relation to the values of untreated cells. Viabilities were expressed as % values. The corresponding IC50 values of the compounds for cytotoxic activity are determined from the concentration-effect curves by means of non-linear regression.

[2] = target: T1, recombinant HDAC1 isolated from HEK293 cells with heterologous HDAC1 expression (Homo sapiens, UniProt Q13547); test: Fluorimetric rHDAC1 activity assay; type: biochemical; settings: only a range of IC50 over the compounds given; read-out: rHDAC1 inhibitory activity IC50
T1 construct: made in house
T1 sequence (Q13547 whole entry): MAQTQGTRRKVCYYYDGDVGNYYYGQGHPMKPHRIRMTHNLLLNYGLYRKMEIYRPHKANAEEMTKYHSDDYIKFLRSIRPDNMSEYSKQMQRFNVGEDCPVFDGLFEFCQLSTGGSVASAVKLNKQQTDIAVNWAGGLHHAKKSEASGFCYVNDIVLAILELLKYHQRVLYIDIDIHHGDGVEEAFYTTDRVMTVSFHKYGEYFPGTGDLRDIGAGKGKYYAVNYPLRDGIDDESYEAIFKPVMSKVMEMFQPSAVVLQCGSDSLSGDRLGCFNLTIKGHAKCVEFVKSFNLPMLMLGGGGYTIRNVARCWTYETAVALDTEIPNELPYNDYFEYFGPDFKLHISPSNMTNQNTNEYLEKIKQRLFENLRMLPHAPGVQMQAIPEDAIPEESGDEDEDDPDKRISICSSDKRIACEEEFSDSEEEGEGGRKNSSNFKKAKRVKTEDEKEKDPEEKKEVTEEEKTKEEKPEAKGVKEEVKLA

[3] = test system: HeLa cervical carcinoma cell line; test: Cellular cytotoxicity assay (Alamar Blue), HeLa; type: cell-based; settings: Homo sapiens, 72 h
Protocol: as §1

[4] = test system: Cal27 head and neck cancer cell line; test: Cellular cytotoxicity assay (Alamar Blue), Cal27; type: cell-based; settings: Homo sapiens
Protocol: as §1

[5] = test system: A549 NSCLC cell line; test: Cellular cytotoxicity assay (Alamar Blue), A549; type: cell-based; settings: Homo sapiens
Protocol: as §1

[6] = test system: EOL1 acute hypereosinophilic myeloid leukemia cell line; test: Cellular cytotoxicity assay (Alamar Blue), EOL1; type: cell-based; settings: Homo sapiens, 72 h, only a range over the listed compounds is given, read-out: Cytotoxicity towards EOL1 cell line IC50
Protocol: as §1

[7] = target: T2, PDGFRβ (Homo sapiens, UniProt P09619); test: Biochemical flash-plate based kinase assay, PDGFRβ; settings: only a range over the listed compounds is given; read-out: PDGFRβ inhibition IC50
T2 construct: purchased ProQinase, Freiburg/Germany
T2 sequence (P09619 33-1106): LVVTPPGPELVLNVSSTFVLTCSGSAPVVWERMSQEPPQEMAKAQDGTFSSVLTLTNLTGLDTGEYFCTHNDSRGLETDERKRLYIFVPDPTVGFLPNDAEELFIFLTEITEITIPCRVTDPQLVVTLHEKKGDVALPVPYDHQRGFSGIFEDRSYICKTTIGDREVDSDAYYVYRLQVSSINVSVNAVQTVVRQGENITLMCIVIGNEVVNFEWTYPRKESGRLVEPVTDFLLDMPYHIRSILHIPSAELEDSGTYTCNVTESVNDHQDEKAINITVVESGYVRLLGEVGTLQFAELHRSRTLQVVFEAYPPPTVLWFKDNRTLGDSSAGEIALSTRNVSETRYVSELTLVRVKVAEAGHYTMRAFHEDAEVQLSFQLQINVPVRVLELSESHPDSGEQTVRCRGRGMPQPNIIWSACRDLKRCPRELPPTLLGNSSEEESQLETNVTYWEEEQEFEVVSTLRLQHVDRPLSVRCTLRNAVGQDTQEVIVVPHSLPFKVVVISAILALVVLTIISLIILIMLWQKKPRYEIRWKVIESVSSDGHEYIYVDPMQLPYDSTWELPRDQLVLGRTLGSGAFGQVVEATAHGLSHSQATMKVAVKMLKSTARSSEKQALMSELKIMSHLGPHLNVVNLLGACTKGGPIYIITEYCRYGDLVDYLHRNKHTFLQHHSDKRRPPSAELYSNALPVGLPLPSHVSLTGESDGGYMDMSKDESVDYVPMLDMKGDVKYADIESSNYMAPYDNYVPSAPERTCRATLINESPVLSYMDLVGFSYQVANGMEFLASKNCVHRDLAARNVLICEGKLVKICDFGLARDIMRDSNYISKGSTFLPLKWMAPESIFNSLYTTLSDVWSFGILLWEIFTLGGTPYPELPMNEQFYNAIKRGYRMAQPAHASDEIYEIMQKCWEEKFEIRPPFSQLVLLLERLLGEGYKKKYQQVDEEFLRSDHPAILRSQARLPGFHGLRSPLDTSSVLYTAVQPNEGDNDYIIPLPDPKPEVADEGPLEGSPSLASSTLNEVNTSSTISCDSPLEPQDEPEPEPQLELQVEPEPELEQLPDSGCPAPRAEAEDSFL
Description: (§2) Active kinase proteins were either obtained from commercial suppliers (Abl, PDGF-Rβ ProQinase, Freiburg/Germany; AblT^315I: Millipore/Upstate, Billerica/USA; PKA: InvitroGen/Panvera, Carlsbad/USA) or prepared in-house (KDR, c-terminal kinase domain AA790-1356, HER2 c-terminal kinase domain, EGFR/HER1 C-terminal kinase domain). As substrates, poly-AGKY for Abl, AblT^315I and PDGF-Rβ (#P-1152 Sigma, Munich/Germany), poly-GluTyr for KDR, HER2 and EGFR/HER1 (#P-0275, Sigma, Munich/Germany) or a PKA substrate peptide for PKA (#12-394, Millipore/Upstate, Billerica/USA) were used. Into each well of a 96-well flashplate (#SMP-200 in the case of Abl, Abl T^315I, PDGF-Rβ, EGFR, HER2 and KDR, #SMP-103 in the case of PKA; Perkin Elmer, Waltham/USA) kinase protein was diluted into kinase assay buffer (50 mM HEPES pH 7.5, 3 mM MgCl2, 3 mM MnCl2, 1 mM DTT, 3 μM sodium orthovanadate, 5 μg/ml PEG 8000) containing the appropriate substrate (final volume 89 μl). DMSO vehicle or compounds are added as 1 μl/well prior to the initiation of the kinase reaction by 10 μl 1 mM [^33P]-γATP (4×10^5 cpm). Reactions were allowed to proceed for a time predetermined to be linear on a time versus phosphorylation plot (30 min for PKA, otherwise 80 min) and terminated with the addition of an equal volume of phosphoric acid (2% H3PO4 for 5 minutes). Plates were washed three times with 0.9% w/v NaCl and quantitated by liquid scintillation counting.

[8] = test system: histone H3 hyperacetylation in HeLa cervical carcinoma cells; test: Cellular histone H3 hyperacetylation assay; type: cell-based; settings: Homo sapiens, 24 h, only a range over the listed compounds is given, read-out: Induction of histone H3 hyperacetylation in HeLa cervical carcinoma cells EC50
Description: To assess the cellular efficacy of a histone deacetylase inhibitor in vitro, an assay was set up in black clear-bottom 96-well plates and optimized for use on the Cellomics “ArrayScan II” platform for a quantitative calculation of histone acetylation. The protocol uses a polyclonal rabbit antibody, specifically binding to acetylated lysine 1-20 of human histone H3 on fixed cells with an Alexa Fluor 488 labeled goat anti rabbit-IgG used for counterstaining (Beckers et al. Int J. Cancer 121, 1138, 2007).
5×10^3 HeLa cervical carcinoma cells/well (ATCC. CCL-2) in 200 μl Dulbecco rs modified Eagle's medium (DMEM) containing 10% fetal calf serum are seeded at day 1 in Packard view plates and incubated for 24 h under standard cell culture conditions. On day 2, 1 μl test compound (200× final concentration) is added and incubation continued for further 24 h. On day 3, the culture medium is discarded and attached cells fixed for 15 min at room temperature by addition of 100 μl fixation buffer (3.7% v:v formaldehyde in phosphate buffered saline/PBS). After discarding the fixation buffer and one wash with blocking solution (1% BSA, 0.3% Tween 20 in PBS), cells are permeabilized at room temperature by addition of 100 μl/well permeabilization buffer (30.8 mM NaCl, 0.54 mM Na2HPO4, 0.31 mM KH2PO4, 0.1% v:v Triton X-100) for 15 min at room temperature. After discarding the permeabilization buffer and washing twice with 100 μl/well blocking solution at room temperature, the 1st antibody (anti-K^1-20 histone H3 antibody, Calbiochem No. 382158) in blocking solution (50 μl/well) is added. After incubation for 1 h at room temperature, the wells are washed twice at room temperature with 100 μl/well blocking solution before addition of the 2nd antibody (goat-anti-rabbit Alexa Fluor 488; MoBiTec No. A-11008) in blocking solution (50 μl/well). After further incubation for 1 h at room temperature, wells are washed twice with 100 μl/well blocking solution at room temperature. Finally, 100 μl/well PBS are added and image analysis performed on the Cellomics “ArrayScan II” platform. For EC50 determination, the percentage of positive cells showing nuclear fluorescence is determined and EC50 calculation done from concentration-effect curves by means of non-linear regression. For calibration, a positive (reference HDAC inhibitors like SAHA or NVP LBH-589) and a negative control were included.

[9] = test system: K562 chronic myeloid leukemia (CML) cell line; test: Cellular cytotoxicity assay (Alamar Blue), K562; type: cell-based; settings: Homo sapiens, 72 h, only a range over the listed compounds is given, read-out: Cytotoxicity towards K562 CML cell line IC50
Protocol: as §1

[10] = target: T3, Bcr-abl (wt) (Homo sapiens, UniProt P00519); test: Biochemical flash-plate based kinase assay, Bcr-abl (wt); settings: only a range over the listed compounds is given; read-out: Bcr-abl (wt) inhibition IC50
T3 construct: purchased ProQinase, Freiburg/Germany
T3 sequence (P00519 118-553 limits assumed): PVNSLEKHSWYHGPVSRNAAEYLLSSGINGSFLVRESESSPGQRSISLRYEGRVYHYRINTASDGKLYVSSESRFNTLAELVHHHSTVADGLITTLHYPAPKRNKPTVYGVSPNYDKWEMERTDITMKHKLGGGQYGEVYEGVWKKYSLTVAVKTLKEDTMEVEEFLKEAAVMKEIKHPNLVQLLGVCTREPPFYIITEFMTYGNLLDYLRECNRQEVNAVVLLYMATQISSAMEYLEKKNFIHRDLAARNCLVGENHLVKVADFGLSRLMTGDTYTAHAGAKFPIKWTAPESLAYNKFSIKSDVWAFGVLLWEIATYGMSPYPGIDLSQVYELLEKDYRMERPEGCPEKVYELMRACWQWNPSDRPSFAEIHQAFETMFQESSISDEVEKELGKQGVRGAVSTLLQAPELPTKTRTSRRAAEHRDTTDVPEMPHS
Description: as §2

[11] = target: T4, Bcr-abl T^315I (Homo sapiens, UniProt P00519, T315I); test: Biochemical flash-plate based kinase assay, Bcr-abl T315I; settings: only a range over the listed compounds is given; read-out: Bcr-abl T^315I inhibition IC50
T4 construct: purchased Millipore/Upstate, Billerica/USA
Description: as §2

[12] = CAL-27, 72 h, only a range over the listed compounds is given, read-out: Cytotoxicity towards Cal27 cell line IC50
[13] = A549, 72 h, only a range over the listed compounds is given, read-out: Cytotoxicity towards A549 NSCLC cell line IC50
[14] = only a range over the listed compounds is given, read-out: Cytotoxicity towards HeLa cervical cell line IC50

Structure (SMILES) | IC50 [2] [nM] | IC50 [7] [nM] | melting point [°C] | IC50 [5, 13] [M] | IC50 [3, 14] [M] | IC50 [6] [nM] | IC50 [9] [nM] | also measured
O=C(/C=C/c1ccc(-c2ccc3ncnc(Nc4ccc(OCc5cccc(F)c5)c(Cl)c4)c3c2)cc1)NO [[8], (E)-3-(4-(4-(3-chloro-4-(3-fluorobenzyl-oxy)phenylamino)quinazolin-6-yl)phen-yl)-N-hydroxyacrylamide hydrochloride monohydrate] | ≥ 35.3 | – | – | – | – | – | – | IC50 ([1]; SK-OV-3, 72 h, read-out: Cytotoxicity towards SKOV3 cell line IC50 (M)): ≥ 1e-06 M; IC50 ([3]; read-out: Cytotoxicity towards HeLa cervical cell line IC50 (M)): 9.1e-07 to 9.4e-06 M; IC50 ([4]; CAL-27, 72 h, read-out: Cytotoxicity towards Cal27 cell line IC50 (M)): ≥ 2.8e-07 M; IC50 ([5]; A549, 72 h, read-out: Cytotoxicity towards A549 NSCLC cell line IC50 (M)): ≥ 1.1e-06 M
Nc1ccccc1NC(=O)/C=C/c1cccc(-c2ccc3ncnc(Nc4ccc(OCc5cccc(F)c5)c(Cl)c4)c3c2)c1 [[11], (E)-N-(2-aminophenyl)-3-(3-(4-(3-chloro-4-(3-fluorobenzyloxy)phenylamino)-quinazolin-6-yl)phenyl)acrylamide] | ≥ 35.3 | – | – | ≥ 1.1e-06 | – | – | – | IC50 [4, 12]: ≥ 2.8e-07 M
Cc1ccc(NC(=O)c2ccc(/C=C/C(=O)NO)s2)cc1Nc1nc(-c2cccnc2)cs1 [[33], (E)-5-(3-(hydroxyamino)-3-oxoprop-1-enyl)-N-(4-methyl-3-(4-(pyridin-3-yl)thiazol-2-ylamino)phenyl)thiophene-2-carboxamide] | – | – | 241.6 | ≥ 2.95e-06 | – | – | – | IC50 [10]: 2000 to 39000 nM; IC50 [11]: 1000 to 34000 nM
C#Cc1cccc(Nc2ncnc3ccc(S(=O)(=O)n4ccc(/C=C/C(=O)NO)c4)cc23)c1 [[45], 3-{1-[4-(3-Ethynylphenylamino)quinazoline-6-sulfonyl]-1H-pyrrol-3-yl}-N-hydroxy-acrylamide] | – | – | – | ≥ 2.4e-07 | ≥ 5e-07 | – | – | IC50 ([1]; SK-OV-3, 72 h, only a range over the listed compounds is given, read-out: Cytotoxicity towards SKOV3 cell line IC50): ≥ 5.6e-07 M; IC50 [4, 12]: 1.6e-07 to 8e-06 M

Further lines, with some results ahead:

IC50 [2] [nM] | IC50 [7] [nM] | melting point [°C] | Structure (SMILES) | IC50 [5, 13] [M] | IC50 [3, 14] [M] | IC50 [6] [nM] | IC50 [9] [nM] | also measured
– | 2100 to 71000 | – | Cc1ccc(NC(=O)c2ccc(C(=O)Nc3ccccc3N)cc2)cc1Nc1nccc(-c2cccnc2)n1 [[14], N-(2-Amino-phenyl)-N′-[4-methyl-3-(4-pyridin-3-yl-pyrimidin-2-ylamino)-phenyl]-terephthalamide compound with trifluoroacetic acid] | – | ≥ 1.15e-06 | 3 to 780 | – | –
– | 2100 to 71000 | – | Nc1ccccc1NC(=O)c1ccc(C(=O)Nc2cccc(Nc3nc(-c4cccnc4)cs3)c2)cc1 [[18], N^1-(2-aminophenyl)-N^4-(3-(4-(pyridin-3-yl)thiazol-2-ylamino)phenyl)terephthalamide hydrate] | – | – | – | – | –
– | 2100 to 71000 | 261 | Cc1ccc(NC(=O)c2ccc(C(=O)NO)cc2)cc1Nc1nc(-c2cccnc2)cs1 [[20], N^1-hydroxy-N^4-(4-methyl-3-(4-(pyridin-3-yl)thiazol-2-ylamino)phenyl)terephthalamide] | ≥ 2.95e-06 | ≥ 1.15e-06 | – | – | EC50 [8]: 1700 to 10000 nM
– | – | 148 to 150 | Nc1ccccc1NC(=O)c1ccc(C(=O)Nc2cccc(Nc3nc(-c4cccnc4)cs3)c2)cn1 [[24], N^2-(2-aminophenyl)-N^5-(3-(4-(pyridin-3-yl)thiazol-2-ylamino)phenyl)pyridine-2,5-dicarboxamide] | – | – | – | 490 to 4070 | –
– | – | 280.5 | Cc1ccc(NC(=O)c2ccc(C(=O)Nc3ccccc3N)s2)cc1Nc1nccc(-c2cccnc2)n1 [[26], N^2-(2-aminophenyl)-N^5-(4-methyl-3-(4-(pyridin-3-yl)pyrimidin-2-ylamino)phenyl)thiophene-2,5-dicarboxamide] | ≥ 2.95e-06 | – | 3 to 780 | 490 to 4070 | –
77 to 1400 | – | – | CN(C(=O)c1ccc(C(=O)Nc2ccccc2N)cc1)c1ccc(Cl)c(Nc2nccc(-c3cccnc3)n2)c1 [[35], N-(2-Amino-phenyl)-N′-[4-chloro-3-(4-pyridin-3-yl-pyrimidin-2-ylamino)-phenyl]-N′-methyl-terephthalamide] | – | – | 3 to 780 | 490 to 4070 | –
